Conditions: for log10 BCF / log10 biotransformation half-life (days): fish

SMILES	melting point [°C]	boiling point [°C]	other results
COc1cc(C#N)cc(OC)c1OC	93.8		
CCOc1cc(C=O)ccc1O	77.5	294	log10 vapour pressure (mmHg): -4.98; ready biodegradability: readily biodegradable
CCCCCOC(=O)c1ccccc1C(=O)OCCCCC		342	
Cc1ccc(C(=O)O)c(C)c1	90	268	
COc1ccc2c(c1)c(CC(=O)O)c(C)n2C(=O)c1ccc(Cl)cc1	158		
CCCCCCCCF		142	log10 vapour pressure (mmHg): 0.772
Cc1ccc(CCN)cc1		214	
COc1ccc(C)cc1N	53	235	ready biodegradability: not readily biodegradable; log10 BCF: 0.55; log10 biotransformation half-life (days): -1
Brc1cnc2ccccc2c1	13.3	275	
S=C(NC1CCCCC1)NC1CCCCC1			ready biodegradability: not readily biodegradable; log10 BCF: 0.64
Cc1cccc2c1CC=C2		209	
O=C1c2ccccc2C(=O)N1CCCBr	75		
O=c1n(CCO)c(=O)n(CCO)c(=O)n1CCO			ready biodegradability: not readily biodegradable; log10 BCF: 0.2
O=C1CC(=O)NC(=O)N1	248		log10 vapour pressure (mmHg): -7.82; ready biodegradability: readily biodegradable
Nc1ccc2ccccc2c1N	98.5		
CCCCOC(N)=O	53		
CCOCC(C)O (centres undefined)		131	
Fc1c(F)c(F)c(C(F)(F)F)c(F)c1F	-65.6	104	log10 vapour pressure (mmHg): 1.46
CCCCCCOCCCCCC		223	log10 vapour pressure (mmHg): -1.34
O=C1C=CCC1		136	
O=c1ccc2cc(Cl)ccc2o1	165		
NCCNCCN	-39	207	ready biodegradability: not readily biodegradable; log10 BCF: 0.65
COc1ccc(CC(=O)O)cc1	87		
COc1c2c(cc3oc(=O)ccc13)OC(C)(C)C=C2	133		

SMILES	melting point [°C]	boiling point [°C]	other results
CCN(CC)CCOC(=O)c1ccc(N)cc1.Cl	156		
O=C(O)[C@H]1O[C@@H](OCC(Cl)(Cl)Cl)[C@H](O)[C@@H](O)[C@@H]1O	142		
S=C(SSC(=S)N1CCCCC1)N1CCCCC1	138		
Nc1c(Cl)cc(-c2cc(Cl)c(N)c(S(=O)(=O)O)c2)cc1S(=O)(=O)O			ready biodegradability: not readily biodegradable
CCC(=O)c1ccc(C)cc1	7.2	236	log10 vapour pressure (mmHg): -1.03
CNC[C@H](O)[C@@H](O)[C@H](O)[C@H](O)CO	128		
FC(F)OC(F)F	-123	6.35	
COC(=O)C(=O)OC	54.3	164	log10 vapour pressure (mmHg): 0.0584
CCC(C)C(C)C (centres undefined)		89.7	log10 biodegradation half-life (days): 0.845; log10 vapour pressure (mmHg): 1.84
c1ccc(N=Nc2ccccc2)cc1	68.2	293	log10 Koc (L/kg): 3.3; log10 vapour pressure (mmHg): -3.44; ready biodegradability: not readily biodegradable
C=CC(=O)NC(C)C	64		
CC(c1ccccc1)(c1ccccc1)c1ccccc1	95		
CN/C(=N\C#N)NCCSCc1nc[nH]c1C	142		
Nc1ccc(S(=O)(=O)c2ccc(NCC(=O)O)cc2)cc1	194		
CCN(CC)C(=S)SC(=S)N(CC)CC	31		
ClCC(Cl)(Cl)CCl		165	log10 vapour pressure (mmHg): 0.484; ready biodegradability: not readily biodegradable; log10 BCF: 1.57; log10 biotransformation half-life (days): -0.28
CCCCCC1C(=O)CCC1CC(=O)OC (centres undefined)	-10		ready biodegradability: readily biodegradable
CCN(CC)C(=S)SSC(=S)N(CC)CC	71.5		
O=Cc1c(O)ccc2ccccc12	83		ready biodegradability: readily biodegradable
N#Cc1c(Cl)c(Cl)c(Cl)c(Cl)c1C#N			ready biodegradability: not readily biodegradable
CC(C)CCCCCOC(=O)C(C)Oc1ccc(Cl)cc1Cl (centres undefined)	-37		log10 vapour pressure (mmHg): -5.47
CC1=NN(c2ccc([N+](=O)[O-])cc2)C(=O)C1[N+](=O)[O-] (centres undefined)	116		
[O-][n+]1cccc(O)c1	191		
Cc1cc(C)c([N+](=O)[O-])c(C)c1[N+](=O)[O-]	85.3	418	

SMILES	melting point [°C]	boiling point [°C]	other results
ClC1=C(Cl)C(Cl)(Cl)C(Cl)=C1Cl	-9	239	log10 Henry constant (atm·m³/mol): -1.57; log10 vapour pressure (mmHg): -1.22; ready biodegradability: not readily biodegradable
CCOC(=O)C(Br)C(C)Br (centres undefined)	58.5		
Cc1nc(=O)c2ccccc2[nH]1	232		
C=C(C)CCCCCCC			log10 biotransformation half-life (days): -0.06
CN(C(=O)N(C)c1ccccc1)c1ccccc1	122	350	
CN(C)C=Nc1c(I)cc(I)c(CCC(=O)O)c1I	168		
CC[C@H]1C[N@@]2CC[C@H]1C[C@H]2[C@H](O)c1ccnc2ccc(OC)cc12	170		
C#C[C@]1(O)CC[C@H]2[C@@H]3CCc4cc(OC)ccc4[C@H]3CC[C@@]21C	150		
S=C(c1ccccc1)c1ccccc1	53.5		
O=C(O)C=CC=Cc1ccc2c(c1)OCO2	215		
O=[N+]([O-])c1cccc2cccc(Cl)c12	95.8		
O=[N+]([O-])c1ccc(F)c([N+](=O)[O-])c1	25.8	296	
FC(Cl)C(F)Cl (centres undefined)		46.8	
CC1(C)[C@H](C(=O)OCc2cccc(Oc3ccccc3)c2)[C@@H]1C=C(Cl)Cl (single isomer, unassigned)			log10 BCF: 2.65; log10 biotransformation half-life (days): 0.37
FC(F)(F)C(Cl)(Cl)C(Cl)(Cl)C(F)(F)F	83.5	131	
IC(I)=C(I)I	187		
CCc1ccc(O)c(C(C)(C)C)c1			log10 vapour pressure (mmHg): -1.74
COC(=O)C1(O)c2ccccc2-c2ccc(Cl)cc21 (centres undefined)	139		
OCc1ccccc1C(c1ccc(O)cc1)c1ccc(O)cc1	202		
FC(F)F	-155	-82.1	log10 Henry constant (atm·m³/mol): -1.02; log10 vapour pressure (mmHg): 4.55
O=C1CCCCCCCCCC1			log10 vapour pressure (mmHg): -1.31
CC(C)CCCCCCCCCCCCCCC(=O)O			ready biodegradability: readily biodegradable
O=S(=O)(c1ccccc1)c1ccc(Cl)cc1	94		
CN(C)CCN(Cc1cccs1)c1ccccn1			log10 Koc (L/kg): 2.87

SMILES	melting point [°C]	boiling point [°C]	other results
Cc1ccc(S(=O)(=O)C2(C(=O)OC(C)C)CC2)cc1	65.5		
CC(=O)Br	-96	76	log10 vapour pressure (mmHg): 2.08
CC(C)C(O)C(C)(C)C (centres undefined)	-13	150	
COC(=O)C(C)=O		136	
CCCCCCCCN(CCCCCCCC)CCCCCCCC		366	ready biodegradability: readily biodegradable; log10 BCF: 1.93
Cc1cc(C(C)(C)C)c(O)c(C(C)(C)C)c1	71	265	log10 vapour pressure (mmHg): -2.29; ready biodegradability: readily biodegradable; log10 BCF: 3.03; log10 biotransformation half-life (days): 0.32
CCCCCCCCCCCCCCCCCCCC(=O)OCC	50		log10 vapour pressure (mmHg): -7.72
C/C=C/C(=O)OC	-42	120	
O=C1NC(=O)C2C3C(C(O)(c4ccccc4)c4ccccn4)=CC(C3=C(c3ccccc3)c3ccccn3)C12 (centres undefined)	194		
CC(C)=CCCC(C)O (centres undefined)		175	
O=C1c2c(Br)c(Br)c(Br)c(Br)c2C(=O)N1CCN1C(=O)c2c(Br)c(Br)c(Br)c(Br)c2C1=O	445		
CCCCCCCCCCCCCCCCCC(=O)OCC(O)CO (centres undefined)	74		ready biodegradability: readily biodegradable
CCCCCCCC/C=C\CCCCCCCCOC(=O)CCCCC(=O)OCCCCCCCC/C=C\CCCCCCCC			ready biodegradability: readily biodegradable
CCCCCCCCCOCCCCCCCCC			log10 vapour pressure (mmHg): -4.28
CCCCC(CC)CN (centres undefined)	-76	169	log10 vapour pressure (mmHg): 0.146
O=C(CCl)c1ccccc1	56.5	247	log10 vapour pressure (mmHg): -2.27
CCCCCO	-78.9	138	log10 Henry constant (atm·m³/mol): -4.89; log10 Koa: 4.69; log10 Koc (L/kg): 0.7; log10 vapour pressure (mmHg): 0.342; ready biodegradability: readily biodegradable
O=C(Nc1ccccc1)NC1CCCCC1			log10 Koc (L/kg): 2.07
Cc1coc2ccccc2c1=O	68		
Nc1cccc2c(N)cccc12	190		ready biodegradability: not readily biodegradable; log10 BCF: 0.65; log10 biotransformation half-life (days): -0.52
CCCC(=O)c1ccccc1O	10		
CCCCCCNC(=O)COC(=O)c1ccccc1	130		
CCO[Si](C)(C)OCC	-87	114	log10 vapour pressure (mmHg): 1.3
ClC(Cl)=CBr	-88.5	108	

SMILES	melting point [°C]	boiling point [°C]	other results
Cc1ccc(O)cc1N	158		
CC1(C)C(O)=CC(=O)C=C1O	214		
O=C(O)[C@H]1CC[C@H]1C(=O)O	131		
Fc1ccc(C(F)(F)F)cc1	-41.7	104	
CCc1cccc(CC)c1N(COC)C(=O)CCl	40		log10 Henry constant (atm·m³/mol): -8.08; log10 Koc (L/kg): 2.28; ready biodegradability: not readily biodegradable; log10 BCF: 1.12; log10 biotransformation half-life (days): -1.1
Cl.Cl.Cl.Cl.Nc1ccc(-c2ccc(N)c(N)c2)cc1N	179		
CCCCCCCCCCCCCCCC(=O)OCCOC(=O)CCCCCCCCCCCCCCC	72		
CCCCCCCCCCCCCCC1CCCCC1	24	360	
CCC(C)c1cc([N+](=O)[O-])cc([N+](=O)[O-])c1O (centres undefined)	40	332	log10 Koc (L/kg): 2.7; ready biodegradability: not readily biodegradable; log10 BCF: 1.79
CC(C)c1ccccc1N		221	
O=C(O)c1ccc(-c2ccccc2)cc1	228		
CC(=O)OCC(=O)[C@@]12OC(C)(C)O[C@@H]1C[C@H]1[C@@H]3C[C@H](F)C4=CC(=O)C=C[C@]4(C)[C@@]3(F)[C@@H](O)C[C@@]12C	309		
CC(=O)Oc1c(C(C)(C)C)cc([N+](=O)[O-])c(C)c1[N+](=O)[O-]	86.5		
BrCCC1CCCCC1	-57	212	
CN(C)CCCO		164	
CC(=O)CC(C)=O	-23	138	log10 vapour pressure (mmHg): 0.471; ready biodegradability: readily biodegradable
CN(C)CCCN	-60	133	log10 vapour pressure (mmHg): 1
OCCNCO			ready biodegradability: readily biodegradable
S=C(S)NCCNC(=S)S			ready biodegradability: not readily biodegradable
C=CCCCCO			ready biodegradability: readily biodegradable
N#Cc1c(F)cccc1F	31		
Cc1cccc(N=Cc2ccccc2)c1	31	315	
CCCCCCCCCCCC(=O)NCCC[N+](C)(C)CC(=O)[O-]			ready biodegradability: readily biodegradable
CC(C)(C)[N+](=O)[O-]	26.2	127	log10 vapour pressure (mmHg): 1.08
